ChEMBL document CHEMBL1821710, “Synthesis and antiproliferative evaluation of 3,5-disubstituted 1,2,4-triazoles containing flurophenyl and trifluoromethanephenyl moieties” (2011)

How the values were obtained:
Assay type in all cases: functional
[1] = system: Jurkat; test: Growth inhibition of human Jurkat cells after 72 hrs by MTT assay
[2] = Growth inhibition of human NPC-TW01 cells after 72 hrs by MTT assay; details: NPC-TW01, 72 h
[3] = system: NCI-H226; test: Growth inhibition of human NCI-H226 cells after 72 hrs by MTT assay; details: NCI-H226, 72 h

Compound | GI50 [1] [µM] | GI50 [3] [µM] | GI50 [2] [µM]
COC(=O)c1nc(C)n(-c2ccc(F)cc2)n1 | 8.7 | 11.7 | 15.2
CCOC(=O)c1nc(-c2ccc[nH]2)n(-c2ccc(F)cc2)n1 | > 100 | 5.71 | 64.3
CCOC(=O)c1nc(-c2ccc[nH]2)n(-c2ccc(C(F)(F)F)cc2)n1 | > 100 | 5.61 | 76.4
COC(=O)c1nc(C2CCCC2)n(-c2ccc(C(F)(F)F)cc2)n1 | > 100 | 5.71 | 56.4
COC(=O)c1nc(-c2ccc[nH]2)n(-c2ccc(C(F)(F)F)cc2)n1 | > 100 | 5.65 | > 100
COC(=O)c1nc(-c2ccc3ccccc3c2)n(-c2ccc(F)cc2)n1 | 18.5 | 79.3 | > 100
COC(=O)c1nc(C)n(-c2ccc(OC)cc2)n1 | > 100 | > 100 | 9.92
COC(=O)c1nc(C(C)C)n(-c2ccc(F)cc2)n1 | > 100 | 6.17 | > 100
COC(=O)c1nc(-c2ccoc2)n(-c2ccc(F)cc2)n1 | 9.32 | 91.6 | 11.7
COC(=O)c1nc(C2CCCCC2)n(-c2ccc(F)cc2)n1 | > 100 | 6.26 | 30.5
COC(=O)c1nc(C)n(-c2ccc(C(F)(F)F)cc2)n1 | 9.1 | 16.6 | > 100
CCCCc1nc(C(=O)OC)nn1-c1ccc(F)cc1 | > 100 | 6.4 | > 100
CN(Cc1cnc2nc(N)nc(N)c2n1)c1ccc(C(=O)N[C@@H](CCC(=O)O)C(=O)O)cc1 [METHOTREXATE] | 1.25 | 10.2 | 0.1
COC(=O)c1nc(C)n(-c2ccccc2C(F)(F)F)n1 | > 100 | 6.13 | > 100
COC(=O)c1nc(-c2ccoc2)n(-c2ccc(C(F)(F)F)cc2)n1 | 97.2 | 6.01 | > 100
COC(=O)c1nc(C2CCCC2)n(-c2ccc(F)cc2)n1 | 9.55 | 70.5 | 10.4

The next lines start with results.

GI50 [1] [µM] | GI50 [3] [µM] | Compound | GI50 [2] [µM]
> 100 | 7.35 | COC(=O)c1nc(C)n(-c2cccc(Br)c2)n1 | > 100
> 100 | 5.74 | COC(=O)c1nc(-c2ccsc2)n(-c2ccc(C(F)(F)F)cc2)n1 | 34.9
9.42 | 16.3 | COC(=O)c1nc(C2CC2)n(-c2ccc(F)cc2)n1 | 95.9
> 100 | > 100 | COC(=O)c1nc(C)n(-c2ccccc2)n1 | > 100
11 | 71.3 | CCc1nc(C(=O)OC)nn1-c1ccc(F)cc1 | 15.8
65.9 | 84 | COC(=O)c1nc(C)n(-c2ccc(Cl)cc2)n1 | 17.5
> 100 | 5.76 | COC(=O)c1nc(C2CCCCC2)n(-c2ccc(C(F)(F)F)cc2)n1 | > 100
10 | 89.3 | COC(=O)c1nc(-c2ccccc2)n(-c2ccc(F)cc2)n1 | 15.6
10.6 | 14.3 | COC(=O)c1nc(C)n(-c2cccc(C(F)(F)F)c2)n1 | > 100
54 | 6.94 | COC(=O)c1nc(-c2ccsc2)n(-c2ccc(F)cc2)n1 | 10.7
9.01 | 72 | COC(=O)c1nc(-c2ccc[nH]2)n(-c2ccc(F)cc2)n1 | 9.58
